Several values for one entry are separate records, joined by “and”; a condition that tells them apart may be missing. Equal entries are not always repeated.
Tested on: ovariectomized Sprague-Dawley rats
Assay: Morphine withdrawal rat hot flush model (naloxone-induced tail skin temperature rise)
Assay type: in vivo
Conditions: for morphine withdrawal hot flush model responsive to agent: data not shown
Source text: Simpkins et al. ((1983) Life Sci. 32:1957-1966) first published morphine withdrawal in the rat as a putative model for hot flushes, based on observations highlighting the similarity of symptoms of gonadal steroid withdrawal to those of opioid withdrawal. Although less severe, the signs and symptoms associated with clinical hot flushes, or estrogen deficiency, in the rat parallel those produced by naloxone-precipitated withdrawal in morphine dependent rats, including: 1) an increase in tail skin temperature; 2) a surge in luteinizing hormone; and 3) an increase in heart rate. Each of these responses is associated with an increase in sympathetic outflow, which is a current mechanistic hypothesis for hot flushes.
In this example, a modification of the original procedure of Simpkins et al. (1983) is used, employing ovariectomized Sprague-Dawley rats. Animals at 60 days of age (or 200-225 grams) are ovariectomized, and allowed a 14-day rest period to insure surgical recovery and clearance of endogenous ovarian hormones. Test compound administration (po or sc) is initiated on day 14 post-ovariectomy in a volume of 1 ml/kg. Once daily administration of test compounds continues through the end of the experiment. On days 15 and 17 post-ovariectomy, the rats are lightly anesthetized with isoflurane and a single 75 mg morphine (free base) pellet is surgically implanted subcutaneously.
On day 21 post-ovariectomy, animals are given ketamine (80 mg/kg; IM) 2 hours after final administration of the test compound. Following induction of the anesthesia, rats are then placed in individual plexiglass cages and temperature sensitive probes are applied to the dorsal side of the tail base. Temperature monitoring is initiated 30 minutes after administration of ketamine, and is recorded every 15 seconds for a 1-hr period. To induce morphine withdrawal, 1 mg/kg naloxone is given subcutaneously 15 minutes after start of temperature monitoring. A sharp rise in tail skin temperature typically occurs within 5 minutes post-naloxone injection, and two quantitative endpoints are made: 1) tail skin temperature at 15 minutes post-naloxone, and 2) area under the temperature response curve for the 45 minute post-naloxone measurement period.
Ethinyl estradiol is dosed orally at 0.3 mg/kg as a positive control. […] Using area under the curve measurements, the response induced by each compound is calculated as a percent inhibition of temperature increase versus the morphine control.

Molecule: CCOc1ccccc1OC(c1ccccc1)C1CNCCO1 [(R,S)-Reboxetine, (R,S)-reboxetine]
- % Inhibition vs. Morphine Control (rat, in vivo, sc, 5 mg/kg): 94%

Molecule: Clc1cccc(Cl)c1N=C1NCCN1 [clonidine]
- morphine withdrawal hot flush model responsive to agent: responsive

Molecule: C#C[C@]1(O)CC[C@H]2[C@@H]3[C@H](C)CC4=C(CCC(=O)C4)[C@H]3CC[C@@]21C [tibolone]
- morphine withdrawal hot flush model responsive to agent: responsive

Molecule: CNCCCN1c2ccccc2CCc2ccccc21 [Desipramine, desipramine]
- % Inhibition vs. Morphine Control (PO, 10 mg/kg, area under the tail skin temperature curve, 45 min post-naloxone): 101%
- % Inhibition vs. Morphine Control (PO, 10 mg/kg, area under the tail skin temperature curve, 45 min post-naloxone, listed as desipramine): 101%

Molecule: medroxyprogesterone
- morphine withdrawal hot flush model responsive to agent: responsive

Molecule: C#C[C@]1(O)CC[C@H]2[C@@H]3CCc4cc(O)ccc4[C@H]3CC[C@@]21C [Ethinyl Estradiol, Ethinyl estradiol]
- % Inhibition vs. Morphine Control (PO, 0.3 mg/kg, area under the tail skin temperature curve, 45 min post-naloxone): 89% and 73% and 90%
- % Inhibition vs. Morphine Control (PO, 0.3 mg/kg, area under the tail skin temperature curve, 45 min post-naloxone, listed as Ethinyl estradiol): 70-90%

Molecule: CCOc1ccccc1OC(c1ccccc1)C1CNCCO1 (racemic) [reboxetine]
- % Inhibition vs. Morphine Control (rat, in vivo, sc, 5 mg/kg): 94%

Reference: patent publication US20070015786A1, “Treatment of hot flashes, impulse control disorders and personality change due to a general medical condition” (Eli Lily and Company, priority 2003, published 2007)
